In paper PMC5754397, “Population pharmacokinetics of nintedanib, an inhibitor of tyrosine kinases, in patients with non-small cell lung cancer or idiopathic pulmonary fibrosis” (Cancer Chemotherapy and Pharmacology, 2017):
Several values for one entry are separate records, joined by “and”; a condition that tells them apart may be missing. Equal values may be shown once. Marks after values point to notes of the source that are not given here.

What was measured:
target receptors = tested on: target receptors; parameters: method as in PMID 21204634; details: cited from earlier work
PDGFRβ = tested on: PDGFRβ; parameters: method as in Boehringer Ingelheim unpublished data, 14; details: PDGFRβ stimulation of primary lung fibroblasts; ref Boehringer Ingelheim unpublished data, 14; cited from earlier work
[1] = parameters: method as in PMID 21204634; details: dedicated ADME study; cited from earlier work
PDGFRα = tested on: PDGFRα; parameters: method as in Boehringer Ingelheim unpublished data, 14; details: PDGFRα stimulation of primary lung fibroblasts; ref Boehringer Ingelheim unpublished data, 14; cited from earlier work
[2] = tested on: VEGF or bFGF stimulation of human umbilical vascular endothelial cells; parameters: method as in Boehringer Ingelheim unpublished data, 14; details: VEGF or bFGF stimulation of HUVEC; ref Boehringer Ingelheim unpublished data, 14; cited from earlier work
mouse xenograft models = tested on: mouse xenograft models; parameters: method as in ref 7 = [7]; 7. European Medicines Agency (2014) Committee for Medicinal Products for Human Use (CHMP) Assessment Report for Vargatef (nintedanib), 25 September 2014. http://www.ema.europa.eu/docs/en_GB/document_l; details: cited from earlier work
[3] = Population pharmacokinetic model of metabolite BIBF 1202 plasma concentrations in patients with NSCLC or IPF treated with nintedanib; format: in vivo, human
Source text: This population pharmacokinetic analysis pooled data from nintedanib treatment in four clinical studies; 1 Phase II (n = 73) and two Phase III trials in patients with NSCLC (LUME-Lung 1 (n = 652) and LUME-Lung 2 (n = 347)) and one Phase II trial (TOMORROW, n = 343) in patients with IPF [11] (data from IPF Phase III trials were not available at time of analysis). An overview of these studies is provided in Online Resource Table S1. In the NSCLC Phase II trial, patients with locally advanced or metastatic relapsed NSCLC in whom first- or second line platinum-based chemotherapy had failed and were randomized to nintedanib 150 or 250 mg twice-daily. Treatment continued until disease progression or intolerable toxicity. In the NSCLC Phase III trials, nintedanib 200 mg twice-daily or placebo was given in repeated 21 day treatment cycles in combination with single infusions of docetaxel 75 mg/m^2 (LUME-Lung 1 trial) or pemetrexed 500 mg/m^2 (LUME-Lung 2 trial), administered on day 1 of each cycle. Treatment cycles were continued until disease progression or intolerable toxicity. In the Phase II trial in patients with IPF [11], patients were randomized to a 52-week treatment period with one of the four doses of nintedanib (50 mg once or twice-daily, 100, 150 mg twice-daily) or placebo. In all four trials, dose reductions and interruptions were allowed to manage adverse events. All studies were conducted in accordance with the Declaration of Helsinki and with approval of the local ethics committees. Written informed consent was obtained from all patients before study entry.
Blood sampling schema for measurement of nintedanib plasma concentrations varied. For all trials, at least two pre-dose and two post-dose blood samples were scheduled during treatment (see Online Resource Table S1). In addition, more extensive sampling was performed in the two Phase II trials. Nintedanib and BIBF 1202 plasma concentrations were analyzed by validated liquid chromatography–mass spectrometry (HPLC–MS/MS) methods. The calibration curves covered the range 0.5–500 ng/mL for nintedanib and 1–1000 ng/mL for BIBF 1202 in undiluted plasma samples and were linear over this range.
The population pharmacokinetic analysis was performed using non-linear mixed-effects modeling techniques (NONMEM, version VI 2.0, ICON Development Solutions, Ellicott City, Maryland, USA). The first-order conditional estimation algorithm with interaction was used. Data processing, diagnostic plots, and calculation of descriptive statistics were performed using R version 2.12.1 (http://www.rproject.org) and SAS version 9.2 (SAS Institute Inc, Cary, NC, USA). Bootstrap analysis was performed using Perl-speaks-NONMEM, version 3.5.3 [24, 25].
Using fixed pharmacokinetic parameter estimates from the nintedanib base model (typical values plus empirical Bayes estimates of individual η), the base model of BIBF 1202 was developed. Plasma concentrations of nintedanib and BIBF 1202 were reported in nM to account for differences in their molecular weight.
The covariate analysis for BIBF 1202 was based on the fixed pharmacokinetic parameters of the final nintedanib model and base model of BIBF 1202 and followed the same principles described for nintedanib (see Online Resource Table S3).
Model evaluation for BIBF 1202 was analogous to nintedanib, with the exception of the non-parametric bootstrap analysis.
Finally, after the sequential pharmacokinetic analysis for nintedanib and BIBF 1202, the parameters for the final models of nintedanib and BIBF 1202 were estimated simultaneously.
To illustrate individual covariate effects, the change in the median steady-state nintedanib and BIBF 1202 plasma concentration–time profiles were compared to the exposure in a typical patient. The typical patient was defined by baseline medians (continuous covariate) and modes (categorical covariate) of the respective covariates in the total analyzed population. […]

[4] = Population pharmacokinetic analysis in healthy subjects after intravenous administration of nintedanib (one-compartment model); format: in vivo, human; details: healthy subjects, intravenous nintedanib; estimate (RSE%)
Source text: The pharmacokinetic profile of BIBF 1202 was best described by a one-compartment model with first-order elimination (see Online Resource Fig. S1 for model structure). To account for formation of BIBF 1202 in the intestine or via hepatic first-pass effect, a first-order absorption with lag time (ALAG2) was implemented as per nintedanib absorption. The relative bioavailability (F2) and the absorption-rate constant (k a2) were implemented as functions of nintedanib F1 and k a, respectively (substantial drop in OFV as compared to a model, where F2 and k a2 were estimated independently of F1 and k a). This parametrization accounted for correlations between nintedanib and BIBF 1202 parameters and replaced the full variance–covariance matrix which was not applied due to the sequential modeling approach used. The rate of formation of BIBF 1202 (k met) during nintedanib systemic elimination was accounted by defining it as a function of nintedanib clearance: k met = CL/V2*ffM, where CL and V2 denote the clearance and central volume of distribution of nintedanib respectively, and ffM denotes the proportion of the nintedanib elimination resulting in BIBF 1202 formation. Due to the lack of data for BIBF 1202 given as an intravenous (IV) infusion, several parameter estimates were not identifiable (ffM, BIBF 1202 apparent volume of distribution [V3/F]) and were, therefore, fixed. The value for ffM was derived from pharmacokinetic data after IV administration of nintedanib (Online Resource Table S4) and the ratio of V3/F–V2/F was fixed based on information observed in rats. […] In addition to the (inter-individual) variability of F2 induced by the variability in F1 (F2 being proportional to F1), additional IIV could be implemented for F2.
Table S4 Structural parameters for nintedanib and BIBF 1202 from a population pharmacokinetic analysis based on healthy subjects (n=23^a, 372 observations) after intravenous administration of nintedanib
One subject (3 mg dose) was excluded from analysis due to increasing plasma concentrations of nintedanib after end of infusion

[5] = final BIBF 1202 model (sequential fit), estimate (RSE%)
[6] = final BIBF 1202 model (sequential fit), reference Caucasian/Black origin = 1.00, estimate (RSE%)

CN1CCN(CC(=O)N(C)c2ccc(N/C(=C3\C(=O)Nc4cc(C(=O)O[C@@H]5O[C@H](C(=O)O)[C@@H](O)[C@H](O)[C@H]5O)ccc43)c3ccccc3)cc2)CC1 [BIBF 1202 glucuronide]
in vitro activity at the target receptors (target receptors): did not show in vitro activity

CN1CCN(CC(=O)N(C)c2ccc(N/C(=C3\C(=O)Nc4cc(C(=O)O)ccc43)c3ccccc3)cc2)CC1 [BIBF 1202]
lower potency compared to nintedanib (PDGFRβ): 607 fold | metabolic ratio for AUC (BIBF 1202 to nintedanib) [1]: ~1 | metabolic ratio for Cmax (BIBF 1202 to nintedanib) [1]: ~1 | lower potency compared to nintedanib (PDGFRα): 265 fold | lower potency compared to nintedanib [2]: 9–10 fold | efficacy in mouse xenograft models (mouse xenograft models): not effective | changes in BIBF 1202 exposure by ECOG performance status and LDH ([3]; covariates influencing BIBF 1202 but not nintedanib exposure): < 30% | IIV in F2 ([3]; final BIBF 1202 model (sequential fit), estimate (RSE% on the variance scale)): 56.7 (8.60^f) CV% and 56.7 (8.60^e) CV% | CL2/F (θCL2), apparent total body clearance for BIBF 1202 [3, 5]: 7.05 (6.37) L/h | F2/F1 (θF2F1), ratio of relative bioavailabilities BIBF 1202 to nintedanib [3, 5]: 0.0110 (11.3) | covariate effect on F2, θLDH_Breakpoint (breakpoint for LDH) [3, 5]: 688 (22.0) U/L | covariate effect on F2, θWT [3, 5]: -0.848 (12.2) | ka2/ka (θka2ka), ratio of absorption rate constants BIBF 1202 to nintedanib [3, 5]: 1.47 (8.16) | covariate effect on F2, θLDH (coefficient for LDH [U/L]) ([3]; final BIBF 1202 model (sequential fit), hockey-stick function, estimate (RSE%)): 0.000656 (22.1) | covariate effect on F2, θEthnicity: Asian origin (except for Indian) [3, 6]: 1.20 (4.83) | covariate effect on F2, θEthnicity: Indian origin [3, 6]: 1.90 (13.5) | covariate effect on F2, θECOG: ECOG≥1 ([3]; final BIBF 1202 model (sequential fit), reference ECOG=0 = 1.00, estimate (RSE%)): 1.16 (4.16) | covariate effect on ka2, θTrial: NSCLC Phase II and IPF Phase II ([3]; final BIBF 1202 model (sequential fit), reference LUME-Lung 1 and LUME-Lung 2 = 1.00, estimate (RSE%)): 0.756 (7.72) | covariate effect on ka2, θNSCLC_histology: non-adenocarcinoma ([3]; final BIBF 1202 model (sequential fit), reference adenocarcinoma = 1.00, estimate (RSE%)): 1.36 (8.90) | share of BIBF 1202 in plasma formed systemically ([3]; final model, systemic formation rate fixed to the value from the IV study): about 8% | upper limit of the predicted 2 h post-dose concentration for Indian patients ([3]; pcQPC of the final BIBF 1202 model, 95% prediction interval of simulated medians, steady state): 88 ng/mL | F2/F1 (θF2F1) ([3]; simultaneous estimation): 0.0153 (–) | IIV in F2 ([3]; simultaneous estimation): 47.9 (–) CV% | covariate effect on F2, θECOG: ECOG≥1 ([3]; simultaneous estimation): 1.13 (–) | covariate effect on F2, θEthnicity: Asian origin (except for Indian) ([3]; simultaneous estimation): 1.19 (–) | covariate effect on F2, θEthnicity: Indian origin ([3]; simultaneous estimation): 1.81 (–) | covariate effect on F2, θLDH (coefficient for LDH [U/L]) ([3]; simultaneous estimation): 0.00064 (–) | covariate effect on F2, θLDH_Breakpoint (breakpoint for LDH) ([3]; simultaneous estimation): 683 (–) U/L | covariate effect on F2, θWT ([3]; simultaneous estimation): -0.791 (–) | covariate effect on ka2, θNSCLC_histology: non-adenocarcinoma ([3]; simultaneous estimation): 1.24 (–) | covariate effect on ka2, θTrial: NSCLC Phase II and IPF Phase II ([3]; simultaneous estimation): 0.864 (–) | ka2/ka (θka2ka) ([3]; simultaneous estimation): 1.14 (–) | CL2/F (θCL2) ([3]; simultaneous estimation of nintedanib and BIBF 1202 models, RSE not available): 9.68 (–) L/h | CL2, total body clearance for BIBF 1202 [4]: 0.513 (17.0) L/h
